Test results taken from US20160000127A1, “MANGO FLAVOR COMPOSITIONS” (MARS, INCORPORATED, priority 2013, published 2016).

Key:
[1] = cited from earlier work; for recog. ppb: Table 21, odor thresholds from literature (footnotes a-g); for recognition (ppb) / detection (ppb): Table 8, representative threshold level; for recognition (ppb): point at which a specific taste is recognizable; for detection (ppb): point at which a taste is detected compared to a control such as water
[2] = Aroma extract dilution analysis (AEDA) by GC-O of aroma isolates of fresh mango cultivars; settings: GC-O on FFAP column; for FD factor PS: Praya Sowoy (PS) mango cultivar aroma isolate; for FD factor M: Malindi (M) mango cultivar aroma isolate; for FD factor WA: White Alfonso (WA) mango cultivar aroma isolate; for FD factor H: Haden (H) mango cultivar aroma isolate, highest dilution at which the aroma was detectable; for FD factor RS: Royal Special (RS) mango cultivar aroma isolate
Text: The presently disclosed subject matter was developed in part by analytical analyses on regional mangos performed to avoid overlooking any key compounds that can greatly influence the natural flavorings. To overcome the lack of distinct cultivar flavors available for true-fruit mango tastes, the presently disclosed subject matter has created a flavor system using aroma extract dilution analysis (AEDA) on fresh fruit from various mango cultivars. In addition, sensory experiments with the flavor compositions of the formulas given together with omission experiments were used to determine the relative importance of some of the components in the manufactured flavorings. A Flavor Dilution (FD)-chromatogram of the odorants was obtained for the odorants perceived in aroma extracts of various mango samples. FD-factors reflect the highest dilution at which a substance is still smelled and these are typically determined by AEDA.
AEDA is known as a powerful screening method used for the detection of aroma compounds, which combines a quantitative gas chromatography olfactometry (GCO) procedure for determining the potency of odorants in food. Using FD values from the AEDA tests, a base flavor system using compounds found in all the cultivars was created. Next, cultivars were characterized by their differences and cultivar components were designed by combining compounds identified as contributing to the distinct differences. The base and cultivar flavors were confirmed by creating a flavor system and testing the flavor system in a model confectionery product.
Volatile compounds are extracted from the fruit samples. For example, compounds are extracted with diethyl ether and an aroma isolate was prepared via high vacuum distillation. The aroma isolate was then serially diluted to a range of dilutions from 2 to 1,024. The various dilutions are then analyzed by GCO.
The FD factor data depict the highest dilution at which an odorant is still detectable by GCO. FD factors are relative measurements. The measurement is the ratio of the initial concentration to its most dilute extraction. Such measurements are proportional to a compounds odor activity value (OAV), which is the ratio of the concentration to an odor threshold in the air.
Fresh ripe mangos were peeled, the seed was removed, and the flesh was cut into small 4 cm^3 sections. The sections were immediately frozen in liquid nitrogen, ground into a fine powder with a laboratory mill and sequentially extracted with freshly distilled diethyl ether (1×100 mL; 1×50 mL) on an autoshaker at room temperature for 10 minutes. After centrifugation (5000 rpm for 5 minutes), the supernatants were combined and the residue was discarded. The organic layer was then separated in a separatory funnel and the aqueous layer was discarded. The ether extract (total volume: 150 mL) was then subjected to high-vacuum distillation using the SAFE technique (Engel, W.; Bahr, W.; Schieberle, P., Solvent assisted flavour evaporation—a new and versatile technique for the careful and direct isolation of aroma compounds from complex food matrices. European Food Research and Technology 1999, 209, 237-241.). The distillation apparatus was thermostated at 40° C. and kept under high vacuum (10-5 mbar). The sample was dropped into the extraction flask of the apparatus over 40 minutes, after which the extraction was continued for an additional 30 minutes. At the completion of the extraction time, the vacuum was broken and the collection flask was removed. The sample was thawed at room temperature and dried over anhydrous sodium sulfate. The sample was then concentrated to approximately 2 ml using a Vigreux column (50×1 cm) held at 50° C. and finally concentrated (total volume: 200 uL) under a gentle stream of nitrogen. The aroma quality of the isolate was then evaluated to ensure that it closely matched the odor quality of the fresh ripe mango flesh.
An Agilent 6890 series GC system was used for GC-O analysis. […]

[3] = Odor threshold levels (recognition and detection) of odorants; settings: Tables 1-5, relative to the other odorants of the same group
Text: As used herein, “threshold level” relates to an amount at which a flavor is detected or recognized. A detection level is the point at which a taste is detected as compared to a control such as water. A recognition level is the point at which a specific taste is recognizable.
Additional measurements can be used as a proxy for potency, whereby similar calculations can be configured to prepare a base blend. For example, threshold levels can be used to determine a reference point for potency. For example, threshold levels include detection levels, where a taste is detected in comparison to a control, for example water. Threshold levels also include recognition levels whereby a taste is specifically recognized, which is generally a higher level than a mere detection level. The threshold levels achieve an equivalent organoleptic effect whereby a specific target is either detectable or recognized.
By way of example, the following table provides representative threshold levels in ppb for both detection and recognition levels.
The specific odorant listed has been categorized one of the highest potency odorants within the noted class. As such, the highest potency relates to the littlest amount to be used in the composition. Therefore, relative potencies are then computed by orders of magnitude as detailed in the above Table. Additional threshold levels are discussed below in Example 4.
The following Example provides odor thresholds of weakest and strongest odorants with the different aroma groups, as well as alternative compounds for the first tier of odorants. These odorants are representative in defining the unique sensory attributes of the aroma isolates of the different cultivars.

| Compound | recog. ppb [1] [ppb] | FD factor PS [2] | FD factor WA [2] | FD factor H [2] | further results |
| --- | --- | --- | --- | --- | --- |
| CC1=CCC(C(C)(C)S)CC1 (stereo not drawn) [1-p-menthene-8-thiol] | 0.0001 | – | – | – | – |
| CCCCCC(=O)C(C)C(C)=O (stereo not drawn) [3-methyl-2,4-nonandione] | – | 128 | – | – | – |
| C=CC(=C)CCC=C(C)C [myrcene] | 4.9 | – | 128 | – | recognition (ppb) [1]: 4.9 ppb; detection (ppb) [1]: 1.2 ppb; FD factor M [2]: 128 |
| CCCC1CCCC(=O)O1 (stereo not drawn) [δ-octalactone] | – | – | 128 | 512 | FD factor M [2]: 128 |
| CCc1ncc(C)nc1CC [2,3-diethyl-5 methyl pyrazine] | – | – | – | – | FD factor RS [2]: 128 |
| CC/C=C\CC=O [(Z)-3-hexenal] | 0.21 | 128 | – | – | – |
| CCCCC1CCC(=O)O1 (stereo not drawn) [γ-octalactone] | 24 | 128 | 512 | 512 | potency within odorant group (footnote *) [3]: *Most potent; recognition (ppb) [1]: 24 ppb; detection (ppb) [1]: 6.5 ppb; FD factor M [2]: 512; FD factor RS [2]: 512 |
| CC(=O)CC(C)(C)S [4-mercapto-4-methyl-2-pentanone] | 0.0001 | – | – | – | recognition (ppb) [1]: 0.0001 ppb |
| C=CC=CC=CCC=CCC [1,3,5,8-undecatetraene] | – | – | 128 | – | FD factor M [2]: 512; FD factor RS [2]: 512 |
| CCCC(=O)OCC [ethyl butanoate] | 2.4 | 128 | 128 | 2048 | FD factor RS [2]: 32 |
| CSCCC=O [3-(methylthio)-propanal] | – | – | 32 | 512 | – |
| OCCc1ccccc1 [2-phenylethanol] | – | – | – | 128 | – |
| CC(=O)/C=C/C1=C(C)CCCC1(C)C [β-ionone] | 8.4 | – | 512 | – | recognition (ppb) [1]: 8.4 ppb; detection (ppb) [1]: 3.5 ppb; FD factor M [2]: 32; FD factor RS [2]: 512 |
| CC(=O)C(C)=O [2,3-butandione] | 2.9 | 32 | – | – | – |
| COC1=C(C)OC(C)C1=O (stereo not drawn) [4-methoxy-2,5-dimethyl-3(2H)-furanone] | 3400 | – | – | – | FD factor RS [2]: 128 |
| CC(=O)C1=NCCC1 [2-acetyl-1-pyrroline] | – | 128 | – | 512 | FD factor M [2]: 512 |

| Compound | recog. ppb [1] [ppb] | FD factor PS [2] | FD factor WA [2] | FD factor H [2] | further results |
| --- | --- | --- | --- | --- | --- |
| CCOC(=O)C(C)C [ethyl-2-methypropanoate] | 0.22 | – | – | 512 | – |
| C=C/C(C)=C/CC=C(C)C [β-(E)-ocimene] | 34 | – | 128 | – | – |
| CC1=C(O)C(=O)C(C)O1 (stereo not drawn) [4-hydroxy-2,5-dimethyl-3(2H)-furanone] | 160 | 2048 | 2048 | 2048 | FD factor M [2]: 2048; FD factor RS [2]: 2048 |
| CCOC(=O)C(C)CC (stereo not drawn) [ethyl-2-methybutanoate] | 0.063 | – | – | 512 | potency within odorant group (footnote *) [3]: *Most potent; recognition (ppb) [1]: 0.063 ppb; detection (ppb) [1]: 0.013 ppb |
| CC1=C(O)C(=O)OC1C (stereo not drawn) [3-hydroxy-4,5-dimethyl-2(5H)-furanone] | 1.1 | – | – | – | potency within odorant group (footnote *) [3]: *Most potent; recognition (ppb) [1]: 1.1 ppb; detection (ppb) [1]: 0.49 ppb |
| C=C/C=C/C=C\CCCCC [1-(E,Z)-3,5-undecatriene] | 0.003 | – | 512 | 512 | potency within odorant group (footnote *) [3]: *Most potent; recognition (ppb) [1]: 0.003 ppb |
| C=C/C(C)=C\CC=C(C)C [β-(Z)-ocimene] | 34 | – | 512 | – | – |
| CC/C=C\CC/C=C/C=O [(E,Z)-2,6-nonadienal] | 0.0091 | 128 | – | – | potency within odorant group (footnote *) [3]: *Most potent; recognition (ppb) [1]: 0.0091 ppb; detection (ppb) [1]: 0.0045 ppb |
| CC/C=C/CC=O [(E)-3-hexenal] | 160 | 512 | – | – | – |
| CCCCCC1CCCC(=O)O1 (stereo not drawn) [δ-decalactone] | 51 | – | – | – | – |
| CCCC(=O)O [butanoic acid] | 7700 | 128 | – | – | – |
| CCCCCC/C=C/C=O [(E)-2-nonenal] | 0.4 | 128 | – | – | – |
| CCOC(=O)CC(C)C [ethyl-3-methylbutanoate] | 0.11 | – | – | 2048 | – |
| CCCCCCC1CCC(=O)O1 (stereo not drawn) [γ-decalactone] | 2.6 | – | – | – | – |
| CC(=O)CCC1=C(C)CCCC1(C)C [dihydro-β-ionone] | – | – | – | – | FD factor RS [2]: 128 |
